In US12016884B2, “Adipose derived stem cell exosomes and uses thereof” (UNIVERSITY OF SOUTH FLORIDA, priority 2016, dated 2024):
“Also recorded” adds a separate entry of the source.

Tested on: human dermal fibroblast (HDF) cells
Assay: ECIS (electric cell-substrate impedance sensing) wound healing assay
Assay type: cell-based
Details: Dynasore about 50 μM added to media with 20 μg exosomes (FIG. 9)
Description: ECIS assays: The ECIS or electric cell-substrate impedance sensing instrument (Applied Biophysics) recorded the impedance on electrically wounded hHDF to detect the migratory response. Briefly, 200 μl of cell suspension were seeded per well of 8W1E ECIS array (5×10^4 cells per well) coated with about 1% gelatin. After cells were confluent in the incubator, the ECIS chambers were mounted to the ECIS system. […] Arrays were then washed with medium under the microscope to remove any dead cells on the electrodes. Thereafter, the wound healing process was determined in real-time by measuring the recovery of electrical impedance, an indicator of the surrounding viable fibroblast cells migrating into the wounded area. […]
Briefly, HDF cells on the micro-electrods of the ECIS wells were killed with a high electrical voltage. Subsequently, the migration of viable cells onto the wounded microelectrodes was measured in real-time by electrical resistance in the presence of bFGF ([…]), about 10 μg/mL exosomes, and about 20 μg/mL exosome respectively. The percentage of recovery was calculated by the difference in the resistance of each time point and the resistance of the first time point after wounding divided by the resistance before the wounding. […]

With `O=C(N/N=C/c1ccc(O)c(O)c1)c1cc2ccccc2cc1O` [Dynasore] the “effect on exosome-driven cell migration in ECIS” value was “blocked the cell migratory effect of exosomes; also recorded: greatly attenuate cell migration; also recorded: inhibition of migration”.
